The target in series [1] is α5β3γ2 GABAA subtype receptor (Homo sapiens, UniProt P18507+P31644). In words: cell-based. The note with it: for Emax: read-out: oocyte electrophysiology maximum potentiation α5β3γ2. The text has this: (§1) The in vitro efficacy and EC50 value of the test compound may be determined by measuring the chloride flux at the surface of a cell expressing the α,β, and γ subunits of the GABAA receptor in response to GABA by the two electrode voltage-clamp technique. While a variety of cells are suitable for use herein, the preferred cells used in this technique are Xenopus laevis oocytes that have been injected with non-polyadenylated CRNA coding for human derived α, βand γ GABAA subunits. The preferred form of the γ subunit is the normally expressed long form although an alternatively spliced form may be used.
(§2) Assays are carried out as described previously in White and Gurley, 1995 and White, et al., 1995. Xenopus laevis oocytes are enzymatically isolated and injected with non-polyadenylated cRNA for human derived α, β and γ GABAA subunits, respectively. In more preferred embodiments cRNA for the α1β2γ2, α2β3γ2, α3β3γ2, and α5β3γ2 subunit combinations are injected. Only one of these subunit combinations is injected per cell. For each subunit combination, sufficient message is injected to result in current amplitudes of >10 nA when 1 μM GABA is applied. Electrophysiological recordings are carried out using the two electrode voltage-clamp technique at a membrane holding potential of −70 mV.
(§3) Compounds are evaluated against a GABA concentration that evokes <10% (EC10) of the maximal evocable GABA current. Each oocyte is exposed to increasing concentrations of compound in order to evaluate a concentration/effect relationship.
(§4) Specificity of a compound for the Ro15-1788 site is determined following completion of the concentration/effect curve. After washing the oocyte sufficiently to remove previously applied compound, the oocyte is exposed to GABA and 1 μM Ro15-1788, followed by exposure to GABA, 1 μM Ro15-1788, and compound. Percent change due to addition of compound is calculated as described above. Any percent change observed in the presence of Ro15-1788 is subtracted from the percent changes in current amplitude observed in the absence of 1 μM Ro15-1788. These net values are used for the calculation of average activity and EC50 values.
(§5) To evaluate average activity and EC50 values, the concentration/effect data are averaged across cells and fit to the logistic equation. Average values are reported as mean±standard error.

Series [2] has as its target α3β3γ2 GABAA subtype receptor (Homo sapiens, UniProt P18507+P34903). In words: cell-based. The note with it: for EC50 / oocyte electrophysiology maximum potentiation α3β3γ2: human subunits, GABA at EC10; for Emax: read-out: oocyte electrophysiology maximum potentiation α3β3γ2; for oocyte electrophysiology maximum potentiation α3β3γ2: negative = inverse agonism.
Text: as §1, §2, §3, §4, §5

For series [3], the target named is α1β2γ2 GABAA subtype receptor (Homo sapiens, UniProt P14867+P18507). In words: cell-based. The note with it: for EC50 / oocyte electrophysiology maximum potentiation α1β2γ2: human subunits, GABA at EC10; for oocyte electrophysiology maximum potentiation α1β2γ2: negative = inverse agonism.
Text: as §1, §2, §3, §4, §5

In series [4] the target is α2β3γ2 GABAA subtype receptor (Homo sapiens, UniProt P18507+P47869). In words: cell-based. The note with it: for EC50 / oocyte electrophysiology maximum potentiation α2β3γ2: human subunits, GABA at EC10; for Emax: read-out: oocyte electrophysiology maximum potentiation α2β3γ2; for oocyte electrophysiology maximum potentiation α2β3γ2: negative = inverse agonism.
Text: as §1, §2, §3, §4, §5

The subject of series [5] is rats. In words: step-down passive avoidance. The settings on record: rat; cognitive impairment side effect (Table VII); NS = no statistically significant effect over dose range. The series is classed as in vivo. The text has this:
(§6) A statistically significant effect in the spatial water maze, step-down passive avoidance, spontaneous locomotor activity, Porsolt swim test, or the elevated plus maze models is defined as p<0.05 using a valid parametric statistical test. Likewise, no statistically significant effect is defined in these models as p>0.05 using a valid parametric statistical test. No statistically significant effect for either of the seizure threshold models is defined as a decrease of less than 25% in the seizure threshold in the presence of a seizure inducing drug or a result that is not significant at the p<0.05 level.
In step-down passive avoidance a rat is placed on a platform located in the center of an electrified grid floor that is contained within a large (45 cm×45 cm×50 cm) white translucent Plexiglas® enclosure. The natural inclination of the rat is to step off the platform and investigate its surroundings. […] Each time the animal steps off the platform it receives a mild foot shock of 2 mAmps×6 sec. Following each shock the animal is removed from the box, placed in its cage for a one minute inter-trial interval, and then returned to the platform. The latency to step down on each trial, the number of trials taken to reach criterion during training and the retention latency are collected.
Testing is conducted approximately 24 hrs. after training. Drug-free animals are placed on the platform in the box in which they will have been trained and the latency to step down onto the grid floor is recorded for one trial as a measure of memory retention.

Series [6] deals with rats. In words: Porsolt forced swim test. The series is classed as in vivo. The settings on record: rat, administered IV; antidepressant effect.
Text: as §6
The effects measured in this model have been correlated to antidepressant efficacy for drugs. The paradigm of this model is that an effective antidepressant compound will cause a rat to make greater attempts to escape a water-filled cylinder than a rat given vehicle only.
Animals used in this study were non-naive male Sprague Dawley Rats (SASCO, St. Louis) weighing between 280-350 grams. The test apparatus consists of 6 clear Plexiglas cylinders 40 cm high×19 cm wide. Cylinders are filled to 18 cm with 25° C. water. Each rat is placed in a cylinder for a 15 minute training session. Following either subchronic or acute dosing of either vehicle (0.5% methylcellulose) of compound, animals are brought back 24 hours later for a 5 minute test session. These test session is videotaped for later scoring.
Subchronic dosing consists of administering drug three times in the 24-hour period between training and testing. The drug is administered 24 hrs., 5 hrs., and 1 hr. prior to the test session. Acute dosing consists of administering the drug once, 1 hour prior to the test session. Scoring is done using a time-sampling computer program written in Visual Basic and run in DOS. […] These sampling score are then converted into percentages of the test session.

Setting [7] is: oocyte electrophysiology EC50 α5β3γ2, Xenopus laevis oocytes, human subunits, GABA at EC10.
[8] abbreviates: oocyte electrophysiology EC50 α3β3γ2, Xenopus laevis oocytes.
Where [9] appears, read: oocyte electrophysiology EC50 α1β2γ2, Xenopus laevis oocytes.
Setting [10] is: oocyte electrophysiology EC50 α2β3γ2, Xenopus laevis oocytes.
Where [11] appears, read: Xenopus laevis oocytes, read-out: oocyte electrophysiology EC50 α3β3γ2.
Where [12] appears, read: Xenopus laevis oocytes, read-out: oocyte electrophysiology EC50 α1β2γ2.
[13] abbreviates: Xenopus laevis oocytes, read-out: oocyte electrophysiology EC50 α2β3γ2.
[14] abbreviates: Xenopus laevis oocytes, human subunits, GABA at EC10, read-out: oocyte electrophysiology EC50 α5β3γ2.

Structures are written as SMILES. Where two headings read alike, the source gives them in different places. Where only a bound is given, the exact number is not on record here.

α1β2γ2 GABAA subtype receptor, sequence (P14867 28-456): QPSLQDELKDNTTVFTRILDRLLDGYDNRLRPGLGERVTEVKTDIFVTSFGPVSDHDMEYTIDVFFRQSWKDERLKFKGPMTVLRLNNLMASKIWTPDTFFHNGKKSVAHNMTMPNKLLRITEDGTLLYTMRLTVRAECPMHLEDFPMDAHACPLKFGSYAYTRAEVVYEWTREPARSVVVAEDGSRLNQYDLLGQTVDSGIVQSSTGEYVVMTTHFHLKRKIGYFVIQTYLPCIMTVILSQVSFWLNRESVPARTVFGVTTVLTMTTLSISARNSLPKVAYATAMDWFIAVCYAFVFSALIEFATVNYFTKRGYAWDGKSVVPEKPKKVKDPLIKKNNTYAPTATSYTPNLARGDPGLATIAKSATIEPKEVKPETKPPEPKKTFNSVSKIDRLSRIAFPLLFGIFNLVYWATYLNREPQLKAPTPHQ
α1β2γ2 GABAA subtype receptor, sequence (P47870 25-512 partner limits assumed): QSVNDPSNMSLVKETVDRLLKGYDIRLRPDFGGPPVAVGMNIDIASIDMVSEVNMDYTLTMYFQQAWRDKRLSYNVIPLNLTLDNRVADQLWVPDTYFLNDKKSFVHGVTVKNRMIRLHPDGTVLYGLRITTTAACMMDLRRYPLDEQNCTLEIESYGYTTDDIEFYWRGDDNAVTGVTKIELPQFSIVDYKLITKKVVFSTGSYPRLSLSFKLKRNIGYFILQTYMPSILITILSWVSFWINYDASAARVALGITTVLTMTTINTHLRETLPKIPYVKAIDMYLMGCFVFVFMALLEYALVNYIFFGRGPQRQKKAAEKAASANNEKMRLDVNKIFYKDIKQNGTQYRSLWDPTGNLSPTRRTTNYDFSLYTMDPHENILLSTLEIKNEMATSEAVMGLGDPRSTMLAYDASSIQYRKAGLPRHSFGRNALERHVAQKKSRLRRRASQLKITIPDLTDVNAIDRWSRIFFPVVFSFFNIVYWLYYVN
α1β2γ2 GABAA subtype receptor, sequence (P18507 40-475): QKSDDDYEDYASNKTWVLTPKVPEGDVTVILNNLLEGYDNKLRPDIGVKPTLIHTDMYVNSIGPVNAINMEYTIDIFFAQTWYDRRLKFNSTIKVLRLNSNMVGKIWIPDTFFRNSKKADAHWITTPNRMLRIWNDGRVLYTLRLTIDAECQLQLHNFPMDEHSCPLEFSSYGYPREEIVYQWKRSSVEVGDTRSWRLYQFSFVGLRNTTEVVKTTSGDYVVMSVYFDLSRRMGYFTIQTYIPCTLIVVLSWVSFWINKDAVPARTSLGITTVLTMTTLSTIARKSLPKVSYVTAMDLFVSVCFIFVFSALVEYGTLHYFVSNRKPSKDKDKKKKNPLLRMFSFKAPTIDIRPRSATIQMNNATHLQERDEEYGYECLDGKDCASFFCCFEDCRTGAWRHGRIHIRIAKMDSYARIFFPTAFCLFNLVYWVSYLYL
α3β3γ2 GABAA subtype receptor, sequence (P34903 29-492): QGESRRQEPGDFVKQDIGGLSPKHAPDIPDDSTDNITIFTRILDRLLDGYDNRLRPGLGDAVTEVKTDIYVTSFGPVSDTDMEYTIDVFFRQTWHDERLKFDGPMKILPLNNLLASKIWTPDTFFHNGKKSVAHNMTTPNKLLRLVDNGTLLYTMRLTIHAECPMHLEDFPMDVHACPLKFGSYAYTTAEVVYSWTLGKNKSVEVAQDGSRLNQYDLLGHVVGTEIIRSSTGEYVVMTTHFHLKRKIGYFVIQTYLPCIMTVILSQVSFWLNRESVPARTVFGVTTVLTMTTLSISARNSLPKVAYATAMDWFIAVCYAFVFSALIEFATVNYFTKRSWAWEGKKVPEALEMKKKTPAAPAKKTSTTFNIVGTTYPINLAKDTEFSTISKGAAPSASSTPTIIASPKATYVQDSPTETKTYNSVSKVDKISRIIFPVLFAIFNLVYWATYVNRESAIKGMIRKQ
α3β3γ2 GABAA subtype receptor, sequence (P28472 26-473 partner): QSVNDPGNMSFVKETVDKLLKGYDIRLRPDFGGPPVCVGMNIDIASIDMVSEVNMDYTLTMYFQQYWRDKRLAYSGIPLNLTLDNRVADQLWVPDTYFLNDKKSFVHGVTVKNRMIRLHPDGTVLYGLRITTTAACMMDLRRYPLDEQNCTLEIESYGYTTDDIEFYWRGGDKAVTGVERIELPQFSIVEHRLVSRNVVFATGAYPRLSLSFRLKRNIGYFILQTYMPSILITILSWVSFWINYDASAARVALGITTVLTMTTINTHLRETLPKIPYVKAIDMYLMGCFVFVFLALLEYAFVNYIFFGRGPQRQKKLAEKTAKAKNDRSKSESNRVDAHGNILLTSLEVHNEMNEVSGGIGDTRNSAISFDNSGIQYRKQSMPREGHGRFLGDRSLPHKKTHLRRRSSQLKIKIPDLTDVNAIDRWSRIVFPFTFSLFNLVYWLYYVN
α3β3γ2 GABAA subtype receptor, sequence (P18507 40-475): as the sequence (P18507 40-475) above
α2β3γ2 GABAA subtype receptor, sequence (P47869 29-451): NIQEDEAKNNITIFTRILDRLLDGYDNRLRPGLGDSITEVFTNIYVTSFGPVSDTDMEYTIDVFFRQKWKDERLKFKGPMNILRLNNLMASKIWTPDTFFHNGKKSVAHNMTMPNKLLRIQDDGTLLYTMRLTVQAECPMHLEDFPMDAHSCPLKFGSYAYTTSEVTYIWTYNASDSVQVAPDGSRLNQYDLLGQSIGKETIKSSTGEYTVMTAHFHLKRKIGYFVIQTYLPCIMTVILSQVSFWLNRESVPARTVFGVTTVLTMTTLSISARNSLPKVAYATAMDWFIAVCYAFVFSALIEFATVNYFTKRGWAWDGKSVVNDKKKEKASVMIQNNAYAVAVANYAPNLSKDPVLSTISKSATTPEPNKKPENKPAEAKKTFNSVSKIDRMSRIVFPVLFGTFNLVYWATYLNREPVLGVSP
α2β3γ2 GABAA subtype receptor, sequence (P28472 26-473 partner): as the sequence (P28472 26-473 partner) above
α2β3γ2 GABAA subtype receptor, sequence (P18507 40-475): as the sequence (P18507 40-475) above
α5β3γ2 GABAA subtype receptor, sequence (P31644 32-462): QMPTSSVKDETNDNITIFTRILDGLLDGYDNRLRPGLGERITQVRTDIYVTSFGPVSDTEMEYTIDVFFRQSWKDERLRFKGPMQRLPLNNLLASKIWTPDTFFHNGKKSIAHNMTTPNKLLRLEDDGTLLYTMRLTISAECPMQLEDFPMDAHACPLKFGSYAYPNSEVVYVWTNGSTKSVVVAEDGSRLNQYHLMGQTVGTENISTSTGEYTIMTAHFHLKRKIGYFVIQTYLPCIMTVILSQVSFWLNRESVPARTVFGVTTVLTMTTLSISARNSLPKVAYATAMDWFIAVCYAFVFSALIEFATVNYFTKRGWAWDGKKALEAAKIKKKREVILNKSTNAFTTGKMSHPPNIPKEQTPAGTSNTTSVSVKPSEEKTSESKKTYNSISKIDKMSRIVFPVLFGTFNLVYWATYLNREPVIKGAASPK
α5β3γ2 GABAA subtype receptor, sequence (P28472 26-473 partner): as the sequence (P28472 26-473 partner) above
α5β3γ2 GABAA subtype receptor, sequence (P18507 40-475): as the sequence (P18507 40-475) above

Consider `Cc1nnc2n1-c1ccc(Cl)cc1C(c1ccccc1)=NC2` [Alprazolam, reference compound], for which the EC50 (usually the concentration at which the effect is half-maximal) in series [1] (setting [7]) turned out to be 0.01 µM; in series [2] (setting [8]), 69 nM; in series [3] (setting [9]), 37 nM; in series [4] (setting [10]), 12 nM.
For `Cc1ccc(-c2nc3ccc(C)cn3c2CC(=O)N(C)C)cc1` [Zolpidem, reference compound], in series [1] (oocyte electrophysiology EC50 α5β3γ2, Xenopus laevis oocytes, human subunits, μM), the EC50 was over 3 µM. For the same compound, the Emax in series [1] was under 20%; in series [2], 882%; in series [4], 350%. For the same compound, the “step-down passive avoidance, minimal efficacious dose” value (“step-down passive avoidance” for short) in series [5] came out at 0.5 mg/kg.
As to `CCOc1ccc(-n2c(=O)c3c[nH]c4ccccc4n-3c2=O)cc1` [compound 1], the concentration giving a half-maximal response (EC50) in series [2] (setting [11]) is 144 nM; in series [2] (setting [8]) it was 35 nM; in series [3] (setting [12]), 159 nM; in series [3] (setting [9]), 6 nM; in series [4] (setting [13]), 114 nM; in series [4] (setting [10]), 20 nM. In addition, in series [3] (Xenopus laevis oocytes), the “oocyte electrophysiology maximum potentiation α1β2γ2” value turned out to be 12%. The “oocyte electrophysiology maximum potentiation α2β3γ2” value in series [4] (Xenopus laevis oocytes) was 71%. The “Porsolt swim test, minimal efficacious dose” value in series [6] was found to be 20 mg/kg.
Regarding `O=c1c(-c2ccccc2F)nc2c[nH]c3ccccc3n1-2` [compound 2], the concentration giving a half-maximal response (EC50) was 0.036 µM in series [1] (setting [7]), 23 nM in series [2] (setting [8]), 33 nM in series [3] (setting [9]) and 12 nM in series [4] (setting [10]). For the same compound, the “oocyte electrophysiology maximum potentiation α1β2γ2” value in series [3] (Xenopus laevis oocytes) is 18%. Moreover, in series [4] (Xenopus laevis oocytes), the “oocyte electrophysiology maximum potentiation α2β3γ2” value was determined as 40%.
Take `CNCc1ccc(NC(=O)c2c[nH]c3c2C(=O)CCCC3)cc1` [compound 4]: the EC50 turned out to be 0.186 µM in series [1] (setting [14]); 133 nM in series [2] (setting [11]); 51 nM in series [2] (setting [8]); 107 nM in series [3] (setting [12]); 48 nM in series [3] (setting [9]); 108 nM in series [4] (setting [13]). For the same compound, the EC50 in series [4] (setting [10]) was determined as 19 nM. The “oocyte electrophysiology maximum potentiation α1β2γ2” value in series [3] (Xenopus laevis oocytes) came to 23%. In addition, the “oocyte electrophysiology maximum potentiation α2β3γ2” value in series [4] (Xenopus laevis oocytes) is 66%. Moreover, the “Porsolt swim test, minimal efficacious dose” value in series [6] was 20 mg/kg.
For the compound `O=C(Nc1cccc(F)c1)c1c[nH]c2c(c1=O)CCC2` [compound 5], the EC50 in series [2] (setting [8]) worked out at 21 nM; in series [4] (setting [10]), 9 nM. Moreover, the “oocyte electrophysiology maximum potentiation α2β3γ2” value in series [4] (Xenopus laevis oocytes) is recorded as 44%.
Consider `COc1ccc(NC(=O)c2c[nH]c3c2C(=O)CC(C)(C)C3)c(F)c1` [compound 6], for which the EC50 in series [1] (setting [14]) was determined as 0.108 µM; in series [2] (setting [8]), 33 nM; in series [3] (setting [9]), 44 nM; in series [4] (setting [10]), 28 nM. Moreover, the results for the Emax in series [1] and in series [3] (read-out: oocyte electrophysiology maximum potentiation α1β2γ2) were 42% and 25%, respectively. Moreover, the “oocyte electrophysiology maximum potentiation α3β3γ2” value in series [2] (Xenopus laevis oocytes) is recorded as 95%. Moreover, the “oocyte electrophysiology maximum potentiation α2β3γ2” value in series [4] (Xenopus laevis oocytes) stood at 72%. Also, in series [5], the “step-down passive avoidance” value was determined as 4 mg/kg.
`O=c1[nH]c2c(n1-c1nc3ccc(F)c(F)c3o1)CCCCC2` [compound 7]: the EC50 is 0.174 µM in series [1] (setting [14]), 9 nM in series [2] (setting [8]), 5 nM in series [3] (setting [9]) and 4 nM in series [4] (setting [10]). Further, the “oocyte electrophysiology maximum potentiation α3β3γ2” value in series [2] (Xenopus laevis oocytes) was found to be 83%. Moreover, in series [3] (Xenopus laevis oocytes), the “oocyte electrophysiology maximum potentiation α1β2γ2” value was 18%. Besides, the “oocyte electrophysiology maximum potentiation α2β3γ2” value in series [4] (Xenopus laevis oocytes) was 51%.
Turning to `CC1CC(=O)c2c(C(=O)Nc3ccc(F)cc3)c[nH]c2C1` (stereo not drawn) [compound 8], in series [1] (Xenopus laevis oocytes, human subunits, GABA at EC10, negative = inverse agonism), the “oocyte electrophysiology maximum potentiation α5β3γ2” value was 16%. Also, the concentration for a half-maximal effect (EC50) came out at 0.04 µM in series [1] (setting [7]), 37 nM in series [2] (setting [8]), 14 nM in series [3] (setting [9]) and 39 nM in series [4] (setting [10]). Also, the “oocyte electrophysiology maximum potentiation α3β3γ2” value in series [2] (Xenopus laevis oocytes) came out at 61%. Moreover, the “oocyte electrophysiology maximum potentiation α1β2γ2” value in series [3] (Xenopus laevis oocytes) is 17%. For the same compound, the “oocyte electrophysiology maximum potentiation α2β3γ2” value in series [4] (Xenopus laevis oocytes) stood at 42%.
Regarding `c1cc2c(cc1-c1ncc3[nH]c4c(c3n1)CCCC4)OCO2` [compound 9], the results for the EC50 in series [2] (setting [11]), in series [3] (setting [9]) and in series [4] (setting [13]) were 331 nM, 74 nM and 184 nM, respectively. For the same compound, the Emax was 23% in series [2] and 53% in series [4]. Besides, the “oocyte electrophysiology maximum potentiation α1β2γ2” value in series [3] (Xenopus laevis oocytes) worked out at 33%. In series [5], the “step-down passive avoidance” value turned out to be 0.5 mg/kg.
For the compound `O=c1c2c[nH]c3ccccc3n-2c(=O)n1-c1ccc(F)cc1` [compound 10], the EC50 was determined as 0.081 µM in series [1] (setting [7]), 46 nM in series [2] (setting [8]) and 31 nM in series [4] (setting [10]).
For the compound `COc1ccc(F)c(-c2ncc3[nH]c4c(c3n2)CCCC4)c1` [compound 11], the EC50 in series [1] (setting [14]) is 0.847 µM; in series [2] (setting [11]), 177 nM; in series [3] (setting [9]), 21 nM; in series [4] (setting [10]) it was 96 nM.
As for `O=C(Nc1ccc(OCCO)cc1)c1c[nH]c2c1C(=O)CCC2` [compound 12], the EC50 in series [1] (setting [7]) was 0.019 µM; in series [2] (setting [8]) it was 18 nM; in series [3] (setting [9]), 18 nM; in series [4] (setting [10]), 11 nM. The “oocyte electrophysiology maximum potentiation α1β2γ2” value in series [3] (Xenopus laevis oocytes) is recorded as 15%.
As to `O=C(Nc1ccccc1)c1c[nH]c2c1C(=O)CCCC2` [compound 13], the concentration for a half-maximal effect (EC50) was 0.023 µM in series [1] (setting [7]), 36 nM in series [2] (setting [8]), 3 nM in series [3] (setting [9]) and 53 nM in series [4] (setting [10]).

Values taken from US20020115611A1, “Methods for screening GABA-modulatory compounds for specified pharmacological activities” (priority 1999, published 2002).
